Here are results for one compound from patent publication US20120196854A1, “PHARMACEUTICAL COMPOSITION COMPRISING AROMATIC HETEROCYCLIC COMPOUND” (Kyowa Hakko Kirin Co., Ltd., priority 2009, published 2012).

This assay has as its target T1, human H-PGDS (Homo sapiens, UniProt O60760).
T1 construct: purchased Cayman Chemical 10006593
Put plainly: H-PGDS inhibitory activity (Prostaglandin D Synthase Inhibitor Screening Assay Kit). The class given is biochemical. The note with it: at a concentration of 1 μmol/L; read-out: H-PGDS inhibitory rate. The protocol:
The H-PGDS inhibitory activity of Compound (I) was calculated according to the following protocol attached to Prostaglandin D Synthase Inhibitor Screening Assay Kit (Cat. No. 10006595, Cayman Chemical, Ann Arbor, Mich., USA).
(§1) First, to a 96-well round-bottom plate (Cat. No. 3882-096, Asahi Techno Glass, Chiba), 60 μL/well of an enzyme assay buffer (0.1 mol/L Tris-HCl, pH 8.0), 10 μL/well of a human H-PGDS [Cat. No. 10006593 (human), Cayman Chemical, Ann Arbor, Mich., USA] at a final concentration of 0.125 μg/mL, 10 μL/well of reduced glutathione at a final concentration of 1 mmol/L, and 10 μL/well of Compound (I) diluted with the enzyme assay buffer were added and lightly mixed. The plate was allowed to stand at room temperature for 10 minutes, and then 10 μL/well of prostaglandin H2(PGH2) (Cat. No. 17020, Cayman Chemical) at a final concentration of 50 μmol/L was added thereto to start enzyme reaction. The reaction was allowed to proceed with mixing by a plate mixer for 1 minute. After the enzyme reaction, 10 μL/well of a 4 mg/mL FeCl2-HCl solution prepared by dissolving FeCl2 in 1 mol/L hydrochloric acid was added to stop the reaction and reduce PGH2 simultaneously. The enzyme reaction solution (100 μL/well) was transferred to a 96-well UV-Star half area plate (Cat. No. 675801, Greiner, Frickenhausen, Germany), and measured for absorbance at 232 nm using a microplate reader Power Wave (BioTek Instrument Inc., Winooski, Vt., USA).
The H-PGDS inhibitory activity (inhibitory rate) of Compound (I) was calculated by the following formula.
The H-PGDS inhibitory activity of Compound 133 was calculated according to the following protocol attached to Prostaglandin D Synthase Inhibitor Screening Assay Kit (Cat. No. 10006595, Cayman Chemical, Ann Arbor, Mich., USA).
as §1, with “133” for “(I)”
The H-PGDS inhibitory activity (inhibitory rate) of Compound 133 was calculated according to the method in Test Example 1.

T1 sequence (O60760 whole entry): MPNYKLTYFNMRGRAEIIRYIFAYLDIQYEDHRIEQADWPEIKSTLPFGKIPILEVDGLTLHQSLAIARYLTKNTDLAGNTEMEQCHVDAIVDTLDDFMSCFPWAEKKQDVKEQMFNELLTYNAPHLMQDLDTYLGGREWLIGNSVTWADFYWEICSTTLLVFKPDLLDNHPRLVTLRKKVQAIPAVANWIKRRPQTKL

For the compound `O=C(O)c1cc(-c2ccco2)nc2ccc3nn(-c4ccccc4)nc3c12` [Compound 133, 7-(furan-2-yl)-2-phenyl-2H-[1,2,3]triazolo[4,5-f]quinoline-9-carboxylic acid], the inhibition at 1 µM was found to be 73%.
